Data from publication PMC11607896 (Biotechnology for Biofuels and Bioproducts, 2024).
Blank lines part the entries; values can stand above or below the compound they belong to.

Key:
Format in all cases: biochemical
PcCel7C [1] = target: T1, PcCel7C (Phanerodontia chrysosporium, UniProt P13860); assay: inhibition of pNPC hydrolysis; conditions: 1 mM pNPC, 1.45 µM enzyme, pH 5.0, 50 °C, 20 min; product inhibition
T1 sequence (P13860 19-516): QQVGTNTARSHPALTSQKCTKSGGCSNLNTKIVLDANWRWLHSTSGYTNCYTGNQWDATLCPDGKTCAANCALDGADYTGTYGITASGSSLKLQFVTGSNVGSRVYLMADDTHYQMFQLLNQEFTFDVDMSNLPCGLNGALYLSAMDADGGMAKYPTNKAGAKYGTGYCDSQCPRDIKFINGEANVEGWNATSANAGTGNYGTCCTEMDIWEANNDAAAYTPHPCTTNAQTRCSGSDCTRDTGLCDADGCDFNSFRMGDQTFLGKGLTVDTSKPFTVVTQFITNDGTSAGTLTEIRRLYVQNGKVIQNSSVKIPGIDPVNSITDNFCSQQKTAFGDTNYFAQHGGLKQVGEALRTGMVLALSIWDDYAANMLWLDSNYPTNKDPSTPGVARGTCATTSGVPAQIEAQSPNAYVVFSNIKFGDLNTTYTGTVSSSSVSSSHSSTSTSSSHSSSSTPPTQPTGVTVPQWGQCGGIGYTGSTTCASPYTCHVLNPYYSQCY

PcCel7D [2] = target: T2, PcCel7D (Phanerodontia chrysosporium, UniProt Q7LIJ0); assay: inhibition of pNPC hydrolysis; conditions: 1 mM pNPC, 1.45 µM enzyme, pH 5.0, 50 °C, 20 min; product inhibition
T2 sequence (Q7LIJ0 19-510): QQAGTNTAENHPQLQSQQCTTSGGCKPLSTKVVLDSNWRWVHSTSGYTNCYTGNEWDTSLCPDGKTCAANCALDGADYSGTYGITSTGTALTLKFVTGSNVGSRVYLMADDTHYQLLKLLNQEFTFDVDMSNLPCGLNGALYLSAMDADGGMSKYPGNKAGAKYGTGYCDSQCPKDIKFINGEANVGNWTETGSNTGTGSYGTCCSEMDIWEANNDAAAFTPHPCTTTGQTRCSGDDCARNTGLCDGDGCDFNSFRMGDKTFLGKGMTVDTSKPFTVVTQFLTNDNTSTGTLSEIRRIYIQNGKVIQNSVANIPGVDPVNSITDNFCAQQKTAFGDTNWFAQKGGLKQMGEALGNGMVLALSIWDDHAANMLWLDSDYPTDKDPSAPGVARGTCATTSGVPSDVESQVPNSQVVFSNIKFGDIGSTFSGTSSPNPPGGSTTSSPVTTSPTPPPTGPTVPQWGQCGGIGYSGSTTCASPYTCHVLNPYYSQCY

TrCel7A [3] = target: T3, TrCel7A (Trichoderma reesei, UniProt P62694); assay: inhibition of pNPC hydrolysis; conditions: 1 mM pNPC, 1.45 µM enzyme, pH 5.0, 50 °C, 20 min; product inhibition
T3 sequence (P62694 18-513): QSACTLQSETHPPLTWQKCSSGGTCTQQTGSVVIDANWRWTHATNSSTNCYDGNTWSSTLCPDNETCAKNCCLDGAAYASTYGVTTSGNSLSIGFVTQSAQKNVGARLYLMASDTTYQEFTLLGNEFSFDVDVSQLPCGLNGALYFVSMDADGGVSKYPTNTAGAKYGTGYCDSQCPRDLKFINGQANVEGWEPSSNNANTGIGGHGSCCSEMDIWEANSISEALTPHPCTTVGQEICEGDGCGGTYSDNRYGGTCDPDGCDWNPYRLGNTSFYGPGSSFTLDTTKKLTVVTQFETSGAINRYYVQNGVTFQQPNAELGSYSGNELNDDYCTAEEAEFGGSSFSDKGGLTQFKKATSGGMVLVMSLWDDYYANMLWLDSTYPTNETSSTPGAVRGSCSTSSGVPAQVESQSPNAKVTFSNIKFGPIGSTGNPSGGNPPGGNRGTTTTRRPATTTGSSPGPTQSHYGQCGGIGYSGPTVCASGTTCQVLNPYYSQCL

PcCel7D [4] = target: T2, PcCel7D; assay: PASC hydrolysis, reducing sugar; conditions: PASC 10 g/L, 0.2 µM enzyme, pH 5.0, 50 °C, 60 min; may be deactivation
PcCel7C [5] = target: T1, PcCel7C; assay: PASC hydrolysis, reducing sugar; conditions: PASC 10 g/L, 0.2 µM enzyme, pH 5.0, 50 °C, 60 min; may be deactivation
PcCel7C [6] = target: T1, PcCel7C; assay: PASC hydrolysis, reducing sugar; conditions: PASC 10 g/L, 0.2 µM enzyme, pH 5.0, 50 °C, 60 min; may be deactivation; remark: listed apart in the source
PcCel7D [7] = target: T2, PcCel7D; assay: PASC hydrolysis, reducing sugar; conditions: PASC 10 g/L, 0.2 µM enzyme, pH 5.0, 50 °C, 60 min; may be deactivation; remark: listed apart in the source
TrCel7A [8] = target: T3, TrCel7A; assay: inhibition of pNPC hydrolysis; conditions: 1 mM pNPC, 1.45 µM enzyme, pH 5.0, 50 °C, 20 min
PcCel7D [9] = target: T2, PcCel7D; assay: inhibition of pNPC hydrolysis; conditions: 1 mM pNPC, 1.45 µM enzyme, pH 5.0, 50 °C, 20 min
PcCel7C [10] = target: T1, PcCel7C; assay: inhibition of pNPC hydrolysis; conditions: 1 mM pNPC, 1.45 µM enzyme, pH 5.0, 50 °C, 20 min

- % reduction in activity at 1 mM (PcCel7C [1]): ~ 50%
- % reduction in activity at 1 mM (PcCel7D [2]): ~ 50%
- % reduction in activity at 1 mM (TrCel7A [3]): ~ 50%
SMILES: OC[C@H]1O[C@@H](O[C@H]2[C@H](O)[C@@H](O)C(O)O[C@@H]2CO)[C@H](O)[C@@H](O)[C@@H]1O (stereo partly shown) [cellobiose]

SMILES: O=C(O)c1ccc(O)cc1 [compound 3, 4-hydroxybenzoic acid]
- % decrease in activity at 30 mM (PcCel7D [4]): the activity of PcCBHs exhibited susceptibility to the same LRCs, following a comparable pattern
- % decrease in activity at 30 mM (PcCel7C [5]): the activity of PcCBHs exhibited susceptibility to the same LRCs, following a comparable pattern

- % reduction in activity at 30 mM (PcCel7C [6]): 87%
- % reduction in activity at 30 mM (PcCel7D [7]): 67%
SMILES: O=C(O)c1c(O)cccc1O [compound 12, 2,6-dihydroxybenzoic acid]

- % loss of activity at 1.5 M (TrCel7A [8]): 30%
- % loss of activity at 1.5 M (PcCel7D [9]): 67%
- % loss of activity at 1.5 M (PcCel7C [10]): 67%
SMILES: OC[C@H]1OC(O)[C@H](O)[C@@H](O)[C@@H]1O (stereo partly shown) [glucose]
